We go through two molecules from publication PMC7323874, “Vancomycin Resistance Is Overcome by Conjugation of Polycationic Peptides” (Angewandte Chemie (International Ed. in English), 2020).

Values after ≈ are worked out from the molar mass of the structure shown. Where two headings read alike, the source gives them in different places. Some results are limits rather than exact numbers.

Common to all, as to format: cell-based
In data set [1] the test system is K. pneumoniae ATCC 700603. The data set is described as follows: microbe, parasite or virus in culture. The method, then:
(§1) Antimicrobial testing – Microdilution
(§2) Antimicrobial testing was performed according to CLSI and EUCAST guidelines in microdilution.8-10 Therefore, all tested substances as well as controls were dissolved in water in different concentrations and serially diluted in MHB II (cation adjusted) on the 96-well plate. A logarithmic growing, overnight culture of the respective bacterial strain was used and adjusted to a McFarland corresponding to 1 × 10^8 cfu/ml. Afterwards the bacterial suspension was diluted to 1 ×10^6 cfu/ml and loaded on the 96-well polypropylene plates, resulting in a final bacterial concentration of 5 × 10^5 cfu/ml. After an incubation at 35 ± 1 °C for 18-20 hours (re-controlled after 24 hours) the MIC was determined as the lowest concentration without visible growth as described previously.11 For direct comparison of the tested substances, all results were calculated in mg/ml and mol/ml afterwards. […]
(§3) As further control substance, the glycopeptide antibiotic teicoplanin was evaluated. […] Resistance development in S. aureus was determined by passaging bacteria in increasing amounts of vancomycin, FU002 or, as control, fusidic acid. In principle, tubes with twofold dilutions of the compounds in 1 ml Muller Hinton broth were inoculated 1:100 with bacterial suspension. The tubes were then incubated for 24 h at 37 °C under shaking. After each passage, the tube with the highest compound concentration showing bacterial growth was used to inoculate the tubes of the next passage (1:100). The tube with the lowest compound concentration showing no growth was defined as the passage MIC. Passaging was stopped after 8 passages.
(§4) For the validation of possible side effects provoked by the conjugates, the cytotoxic effect of the lead candidate FU002 on human cells was assessed in a colorimetric viability assay. Different human cell types were used including kidney and liver cell lines as well as freshly isolated peripheral blood cells. Cells were seeded into 96-well microtiter plates at 2 x 10^4 cells/well and cultured overnight (18-24 h) in a […]

A further data set concerns A. baumannii SC300007. The experiment in a line: microbe, parasite or virus in culture. The method, then:
as §1, §2, §3, §4

The test system of the next data set is human erythrocytes. The data set is described as follows: Hemolysis assay. The settings on record: up to a concentration of 640 µg/ml; 120 min at 37 °C; absorption at 554 nm; 1% Triton X-100 as positive control. As to the method: For hemolysis studies, blood from four different, fasted men were taken to determine the hemoglobin release. Erythrocytes were purified centrifuging blood at 2500 rpm for 3 min. The remaining pellet was washed with PBS and centrifuged again. This process was repeated until the supernatant remained clear.
For the hemolysis assay, v-bottom plates were used. FU002 was tested in duplicates in three different assays. As positive control, a 1% Triton® in 0.9%-NaCl solution was used.
FU002 was serial diluted on the plate, resulting in 50 µl of a final concentration of 640 µg/ml to 1.25 µg/ml. Every well contained 50 µl of the purified erythrocytes. […] 50 µl of the supernatant were transferred to a flat-bottom plate and absorption was measured at 554 nm.
Hemolysis was calculated as followed: […]
Cobra Auto γ-Counter, (Packard Bioscience, USA) in comparison with standards. The tissue-associated activity was related to the total injected dose (ID) and expressed as a percentage of the total injected dose per gram of tissue (%ID/g). […]
Mice were infected by intravenous application of the bacterial inoculum via the tail vein. […] During infection, mice were scored twice daily and sacrificed at day 4 post infection and livers harvested. […] Significant differences in the CFU of the livers were determined with Kruskal-Wallis test (software: GraphPad Prism 5.0).

Data set [2] concerns Staphylococcus aureus USA300 LAC. The data set is described as follows: microbe, parasite or virus in culture. The settings on record: for MIC: Staphylococcus aureus, MRSA / USA300, 24 h. As to the method:
as §1, §2
Resistance development study
Resistance development in S. aureus was determined by passaging bacteria in increasing amounts of vancomycin, FU002 or, as control, fusidic acid. In principle, tubes with twofold dilutions of the compounds in 1 ml Muller Hinton broth were inoculated 1:100 with bacterial suspension. The tubes were then incubated for 24 h at 37 °C under shaking. After each passage, the tube with the highest compound concentration showing bacterial growth was used to inoculate the tubes of the next passage (1:100). The tube with the lowest compound concentration showing no growth was defined as the passage MIC. Passaging was stopped after 8 passages.
as §4

With `CC(C)C[C@H](C(=O)N[C@H]1C(=O)N[C@@H](CC(N)=O)C(=O)N[C@H]2C(=O)N[C@H]3C(=O)N[C@H](C(=O)N[C@H](C(=O)O)c4cc(O)cc(O)c4-c4cc3ccc4O)[C@H](O)c3ccc(c(Cl)c3)Oc3cc2cc(c3O[C@@H]2O[C@H](CO)[C@@H](O)[C@H](O)[C@H]2O[C@H]2C[C@](C)(N)[C@H](O)[C@H](C)O2)Oc2ccc(cc2Cl)[C@H]1O)N(C)C(=O)C1CCC(CN2C(=O)CC(SC[C@H](NC(=O)[C@H](CCCNC(=N)N)NC(=O)[C@H](CCCNC(=N)N)NC(=O)[C@H](CCCNC(=N)N)NC(=O)[C@H](CCCNC(=N)N)NC(=O)[C@H](CCCNC(=N)N)NC(=O)[C@@H](N)CCCNC(=N)N)C(N)=O)C2=O)CC1` (some centres unmarked) [FU002], the MIC in data set [1] (K. pneumoniae ATCC 700603, median of at least triplicates on two different plates) is not below 640 µg/mL; against A. baumannii SC300007 (A. baumannii SC300007, median of at least triplicates on two different plates), not below 640 µg/mL. The hemolytic activity result with human erythrocytes is on record as “no relevant hemolytic activity”. Moreover, in data set [2] (MRSA USA300 LAC, 8 passages in increasing compound concentrations, 24 h at 37 °C each), the “MIC after 8 passages” value was determined as 4 µg/mL (≈ 1.47 µM). Further, the “initial MIC” value in data set [2] (MRSA USA300 LAC, before passaging, Muller Hinton broth, 24 h, 37 °C) was found to be 1 µg/mL. For the same molecule, the resistance development result in data set [2] (after eight passages in increasing concentrations) is recorded as “no resistance development was observed”.
Consider `CN[C@H](CC(C)C)C(=O)N[C@H]1C(=O)N[C@@H](CC(N)=O)C(=O)N[C@H]2C(=O)N[C@H]3C(=O)N[C@H](C(=O)N[C@H](C(=O)O)c4cc(O)cc(O)c4-c4cc3ccc4O)[C@H](O)c3ccc(c(Cl)c3)Oc3cc2cc(c3O[C@@H]2O[C@H](CO)[C@@H](O)[C@H](O)[C@H]2O[C@H]2C[C@](C)(N)[C@H](O)[C@H](C)O2)Oc2ccc(cc2Cl)[C@H]1O` [vancomycin], for which the MIC in data set [1] (Klebsiella pneumoniae, ATCC700603) is not below 640 µg/mL; in the data set with A. baumannii SC300007 (Acinetobacter baumannii, SC300007) it was not below 640 µg/mL; in data set [2] (read-out: MIC after 8 passages) it was 4 µg/mL (≈ 2.76 µM); in data set [2] (read-out: initial MIC) it was 0.5 µg/mL (≈ 0.345 µM). In addition, the hemolytic activity result in the data set with human erythrocytes is reported as “no relevant hemolytic activity”.
